From US8957083B2, “Spiro-amino-imidazolone and spiro-amino-dihydro-pyrimidinone compounds as beta-secretase modulators and methods of use” (Amgen Inc., priority 2010, dated 2015)
Where two headings read alike, the source gives them in different places.

What was measured:
[1] = system: Aβ40 in conditioned medium of cells expressing amyloid precursor protein; assay: In vitro BACE cell-based assay (HEK cell assay), Aβ40 sandwich ELISA; conditions: Aβ40 in supernatant after 24 h incubation
Experimental: In Vitro BACE Cell-Based Assay
The cell-based assay measures inhibition or reduction of Aβ40 in conditioned medium of test compound treated cells expressing amyloid precursor protein.
Cells stably expressing Amyloid Precursor Protein (APP) were plated at a density of 40K cells/well in 96 well plates (Costar). The cells were cultivated for 24 hours at 37° C. and 5% CO2 in DMEM supplemented with 10% FBS. The test compounds were then added to cells in 10-point dose response concentrations with the starting concentration being either 100 μM or 10 μM. The compounds were diluted from stock solutions in DMSO and the final DMSO concentration of the test compounds on cells was 0.1%. After 24 h of incubation with the test compounds the supernatant conditioned media was collected and the Aβ 40 levels were determined using a sandwich ELISA. The IC50 of the compound was calculated from the percent of control or percent inhibition of Aβ 40 as a function of the concentration of the test compound.
The sandwich ELISA to detect Aβ 40 was performed in 96 well microtiter plates, which were pre-treated with goat anti-rabbit IgG (Pierce). The capture and detecting antibody pair that were used to detect Aβ 40 from cell supernatants were affinity purified pAb40 (Biosource) and biotinylated 6E10 (Signet Labs Inc.), respectively. The optimal concentration for the pAb40 antibody was 3 μg/ml in Superblock/TBS (Pierce) that was supplemented with 0.05% Tween 20 (Sigma).
Cellular supernatants were incubated with the capture antibody for 3 h at 4° C., followed by 3 wash steps in TBS-tween (0.05%). The detecting antibody incubation was for 2 h at 4° C., again followed by the wash steps as described previously. The final readout of the ELISA is Time-Resolved Fluorescence (counts per minute) using Delfia reagents Streptavidin-Europium and Enhancement solutions (Perkin Elmer) and the Victor 2 multilabel counter (Perkin Elmer).

[2] = molecular target: BACE 1 (Beta Secretase enzyme) (Homo sapiens (Human), UniProt P56817); assay: In vitro enzymatic BACE FRET assay; assay type: biochemical; conditions: enzyme 0.2 nM, FRET substrate 50 nM, pH 4.2
Experimental: In Vitro Enzymatic BACE FRET (Fluorescence Resonance Energy Transfer) Assay (Enzyme Assay Data in the Example Table I)
The assay buffer used in this screen is 0.05 M acetate, pH 4.2, 10% DMSO final, 100 uM genapol (which is a nonionic detergent, below its Critical Micelle Concentration). […] This assay is effectively started by the addition of FRET substrate (50 nM) and the combination is incubated for one hour. The FRET assay is terminated with by addition of Tris buffer, which raises the pH to neutrality, and the fluorescence is determined. The FRET substrate is a peptide with commercially available fluorophore and quencher, on opposite sides of the BACE cleavage site. Proteolytic cleavage of the FRET substrate releases quenching of fluorescence (excitation […] and […]).

[3] = Homo sapiens, HEK293, 24 h, average IC50, read-out: HEK cell assay
[4] = average IC50, read-out: BACE 1 FRET assay
[5] = Homo sapiens, HEK293, 24 h, class symbols, read-out: HEK cell assay (IC50 class)
[6] = class symbols, read-out: BACE 1 FRET assay (IC50 class)

BACE 1 (Beta Secretase enzyme), sequence (P56817 46-501): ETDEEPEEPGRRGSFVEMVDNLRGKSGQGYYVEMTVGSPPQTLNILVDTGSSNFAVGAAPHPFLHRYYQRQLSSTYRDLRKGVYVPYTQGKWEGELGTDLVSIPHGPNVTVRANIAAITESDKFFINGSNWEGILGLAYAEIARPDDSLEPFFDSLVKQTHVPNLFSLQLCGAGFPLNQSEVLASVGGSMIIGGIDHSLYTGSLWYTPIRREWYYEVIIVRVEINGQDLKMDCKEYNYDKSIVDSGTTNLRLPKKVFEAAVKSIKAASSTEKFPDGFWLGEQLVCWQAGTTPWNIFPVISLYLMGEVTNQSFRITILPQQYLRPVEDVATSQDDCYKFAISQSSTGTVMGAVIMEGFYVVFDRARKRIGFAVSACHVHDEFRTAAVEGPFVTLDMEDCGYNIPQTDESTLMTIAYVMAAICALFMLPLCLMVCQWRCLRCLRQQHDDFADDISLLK

IC50 [1, 3] [nM] | IC50 [2, 4] [nM] | IC50 ([1]; average IC50, read-out: HEK cell assay) [nM] | IC50 [1, 5] [nM] | IC50 [2, 6] [nM] | SMILES
1970 | 13.6 | – | – | – | COc1ccc2c(c1)[C@]1(N=C(N)N(C)C1=O)c1cc(-c3ccc(C)cc3)cc(F)c1O2 (mixture of isomers) [Example 29, (4R)-2-amino-4′-fluoro-7′-methoxy-1-methyl-2′-(4-methylphenyl)spiro[imidazole-4,9′-xanthen]-5(1H)-one and (4S)-2-amino-4′-fluoro-7′-methoxy-1-methyl-2′-(4-methylphenyl)spiro[imidazole-4,9′-xanthen]-5(1H)-one]
108 | 13.4 | – | – | – | COc1ccc2c(c1)[C@]1(N=C(N)N(C)C1=O)c1cc(-c3cncnc3)ccc1O2 (stereo in doubt) [Example 8, 2-amino-2′-methoxy-1-methyl-7′-(pyrimidin-5-yl)spiro[imidazole-4,9′-xanthen]-5(1H)-one]
3.6 | 0.9 | – | – | – | CN1C(=O)[C@]2(N=C1N)c1cc(C3=CCOCC3)ccc1Oc1ccc(-c3cccnc3F)cc12 (stereo in doubt) [Example 9, 2-amino-2′-(3,6-dihydro-2H-pyran-4-yl)-7′-(2-fluoropyridin-3-yl)-1-methylspiro[imidazole-4,9′-xanthen]-5(1H)-one]
13.7 | 0.9 | – | – | – | CC#Cc1cncc(-c2ccc3c(c2)[C@]2(N=C(N)N(C)C2=O)c2cc(C4=CCOCC4)cc(F)c2O3)c1 (stereo in doubt) [Example 30, (4R)-2-amino-2′-(3,6-dihydro-2H-pyran-4-yl)-4′-fluoro-1-methyl-7′-(5-(1-propyn-1-yl)-3-pyridinyl)spiro[imidazole-4,9′-xanthen]-5(1H)-one, (4S)-2-amino-2′-(3,6-dihydro-2H-pyran-4-yl)-4′-fluoro-1-methyl-7′-(5-(1-propyn-1-yl)-3-pyridinyl)spiro[imidazole-4,9′-xanthen]-5(1H)-one]
– | 4.1 | 237 | – | – | Cc1ccc(-c2cc(F)c3c(c2)[C@]2(N=C(N)N(C)C2=O)c2cc(-c4cccc(Cl)c4)ccc2O3)cc1 (stereo in doubt) [Example 33, (4R)-2-amino-7′-(3-chlorophenyl)-4′-fluoro-1-methyl-2′-(4-methylphenyl)spiro[imidazole-4,9′-xanthen]-5(1H)-one, (4S)-2-amino-7′-(3-chlorophenyl)-4′-fluoro-1-methyl-2′-(4-methylphenyl)spiro[imidazole-4,9′-xanthen]-5(1H)-one]
– | – | – | > 1000 | > 1000 | CN1C(=O)CC2(N=C1N)c1cc(Br)ccc1Oc1c2cc(Cl)nc1F (centres unmarked) [Example 11, 2′-amino-7-bromo-3-chloro-1-fluoro-1′-methyl-1′H-spiro[chromeno[2,3-c]pyridine-5,4′-pyrimidin]-6′(5′H)-one]
– | – | – | > 1000 | 100 to 1000 | CN1C(=O)CC2(N=C1N)c1cc(-c3cccnc3F)ccc1Oc1c2cc(Cl)nc1F (centres unmarked) [Example 12, 2′-amino-3-chloro-1-fluoro-7-(2-fluoropyridin-3-yl)-1′-methyl-1′H-spiro[chromeno[2,3-c]pyridine-5,4′-pyrimidin]-6′(5′H)-one]
154 | 22.8 | – | – | – | CN1C(=O)CC2(N=C1N)c1cc(-c3cccnc3F)ccc1Oc1c2cc(-c2cccnc2F)nc1F (centres unmarked) [Example 13, 2′-amino-1-fluoro-3,7-bis(2-fluoropyridin-3-yl)-1′-methyl-1′H-spiro[chromeno[2,3-c]pyridine-5,4′-pyrimidin]-6′(5′H)-one]
361 | 8210 | – | – | – | CN1C(=O)C[C@@]2(N=C1N)c1cc(-c3cccnc3F)ccc1Oc1c2cc(Cl)nc1F [Example 14, (R)-2′-amino-3-chloro-1-fluoro-7-(2-fluoropyridin-3-yl)-1′-methyl-1′H-spiro[chromeno[2,3-c]pyridine-5,4′-pyrimidin]-6′(5′H)-one]
643 | 33.2 | – | – | – | CN1C(=O)C[C@]2(N=C1N)c1cc(-c3cccnc3F)ccc1Oc1c2cc(Cl)nc1F [Example 15, (S)-2′-amino-3-chloro-1-fluoro-7-(2-fluoropyridin-3-yl)-1′-methyl-1′H-spiro[chromeno[2,3-c]pyridine-5,4′-pyrimidin]-6′(5′H)-one]
6.3 | 1.4 | – | – | – | CN1C(=O)CC2(N=C1N)c1cc(-c3cccnc3F)ccc1Oc1c2cc(C2=CCCOC2)nc1F (centres unmarked) [Example 16, 2′-amino-3-(5,6-dihydro-2H-pyran-3-yl)-1-fluoro-7-(2-fluoropyridin-3-yl)-1′-methyl-1′H-spiro[chromeno[2,3-c]pyridine-5,4′-pyrimidin]-6′(5′H)-one]
223 | 2.8 | – | – | – | CN1C(=O)C[C@]2(N=C1N)c1cc(-c3cccnc3F)ccc1Oc1c2cc(C2=CCCOC2)nc1F [Example 17, (S)-2′-amino-3-(5,6-dihydro-2H-pyran-3-yl)-1-fluoro-7-(2-fluoropyridin-3-yl)-1′-methyl-1′H-spiro[chromeno[2,3-c]pyridine-5,4′-pyrimidin]-6′(5′H)-one]
71.6 | 2.4 | – | – | – | CN1C(=O)CC2(N=C1N)c1cc(-c3cccnc3F)ccc1Oc1c2cc(-c2ccnc(F)c2)nc1F (centres unmarked) [Example 18, 2′-amino-1-fluoro-7-(2-fluoropyridin-3-yl)-3-(2-fluoropyridin-4-yl)-1′-methyl-1′H-spiro[chromeno[2,3-c]pyridine-5,4′-pyrimidin]-6′(5′H)-one]
82 | 1.4 | – | – | – | CN1C(=O)C[C@]2(N=C1N)c1cc(-c3cccnc3F)ccc1Oc1c2cc(-c2ccnc(F)c2)nc1F [Example 19, (S)-2′-amino-1-fluoro-7-(2-fluoropyridin-3-yl)-3-(2-fluoropyridin-4-yl)-1′-methyl-1′H-spiro[chromeno[2,3-c]pyridine-5,4′-pyrimidin]-6′(5′H)-one]
– | – | – | > 1000 | > 1000 | CN1C(=N)N[C@@]2(CC1=O)c1cc(Br)ccc1Oc1cnc(Cl)cc12 [Example 20-A, (S)-7-bromo-3-chloro-2′-imino-1′-methyl-2′,3′-dihydro-1′H-spiro[chromeno[2,3-c]pyridine-5,4′-pyrimidin]-6′(5′H)-one]
– | – | – | > 1000 | > 1000 | CN1C(=N)N[C@]2(CC1=O)c1cc(Br)ccc1Oc1cnc(Cl)cc12 [Example 20-B, (R)-7-bromo-3-chloro-2′-imino-1′-methyl-2′,3′-dihydro-1′H-spiro[chromeno[2,3-c]pyridine-5,4′-pyrimidin]-6′(5′H)-one]
426 | 48.3 | – | – | – | CN1C(=N)NC2(CC1=O)c1cc(-c3cccnc3F)ccc1Oc1cnc(-c3cccnc3F)cc12 (centres unmarked) [Example 21, 3,7-bis(2-fluoropyridin-3-yl)-2′-imino-1′-methyl-2′,3′-dihydro-1′H-spiro[chromeno[2,3-c]pyridine-5,4′-pyrimidin]-6′(5′H)-one]
2380 | – | – | – | – | CN1C(=O)C[C@@]2(N=C1N)c1cc(-c3cccnc3F)ccc1Oc1cnc(-c3ccnc(F)c3)cc12 [Example 21-A, (R)-7-(2-Fluoropyridin-3-yl)-3-(2-fluoropyridin-4-yl)-2′-imino-1′-methyl-2′,3′-dihydro-1′H-spiro[chromeno[2,3-c]pyridine-5,4′-pyrimidin]-6′(5′H)-one]
99.5 | – | – | – | – | CN1C(=O)C[C@]2(N=C1N)c1cc(-c3cccnc3F)ccc1Oc1cnc(-c3ccnc(F)c3)cc12 [Example 21-B, (S)-7-(2-Fluoropyridin-3-yl)-3-(2-fluoropyridin-4-yl)-2′-imino-1′-methyl-2′,3′-dihydro-1′H-spiro[chromeno[2,3-c]pyridine-5,4′-pyrimidin]-6′(5′H)-one]
290 | – | – | – | – | CN1C(=O)[C@@]2(N=C1N)c1cc(-c3cccnc3F)ccc1Oc1c(F)cc(-c3ccnc(F)c3)cc12 [Example 38, (4R)-2-amino-4′-fluoro-7′-(2-fluoro-3-pyridinyl)-2′-(2-fluoro-4-pyridinyl)-1-methylspiro[imidazole-4,9′-xanthen]-5(1H)-one]
3.1 | – | – | – | – | CN1C(=O)[C@]2(N=C1N)c1cc(-c3cccnc3F)ccc1Oc1c(F)cc(-c3ccnc(F)c3)cc12 [Example 39, (4S)-2-amino-4′-fluoro-7′-(2-fluoro-3-pyridinyl)-2′-(2-fluoro-4-pyridinyl)-1-methylspiro[imidazole-4,9′-xanthen]-5(1H)-one]
